Patent US8329686B2, “Isatin analogues and uses therefor” (Washington University, priority 2006, dated 2012)
Like-named read-outs stand apart in the source and are kept apart here.

Experiments:
Type in all cases: biochemical
[1] = target: T1, caspase 1 (Homo sapiens, UniProt P29466); experiment: Enzyme inhibition assay, caspase 1 (fluorogenic Ac-YVAD-AMC)
T1 construct: purchased BIOMOL Research Laboratories (Plymouth Meeting, Pa.)
T1 sequence (P29466 120-297 limits assumed): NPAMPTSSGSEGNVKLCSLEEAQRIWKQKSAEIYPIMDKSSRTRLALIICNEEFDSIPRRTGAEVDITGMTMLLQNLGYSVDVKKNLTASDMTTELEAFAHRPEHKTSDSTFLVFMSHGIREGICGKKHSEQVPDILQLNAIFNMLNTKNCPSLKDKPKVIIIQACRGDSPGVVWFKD
T1 sequence (P29466 317-404 limits assumed): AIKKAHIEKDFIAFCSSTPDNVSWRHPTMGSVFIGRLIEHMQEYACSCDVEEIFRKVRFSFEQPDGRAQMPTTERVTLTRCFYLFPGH
Method: (§1) Enzyme Assays. Inhibition of recombinant human caspase-3 and other caspases by the isatin analogues was assessed using a fluorometric assay by measuring the accumulation of a fluorogenic product, 7-amino-4-methylcoumarin (7-AMC).
(§2) Enzyme Inhibition Assays. Recombinant human caspases (3, 6, 7, and 8) and their peptide-specific substrates (Ac-DEVDAMC, Ac-VEID-AMC, Ac-DEVD-AMC, and Ac-IETD-AMC, respectively) were purchased from Sigma-Aldrich (St. Louis, Mo.) with the exception of caspase 1 and its substrate (Ac-YVAD-AMC), which were obtained from BIOMOL Research Laboratories (Plymouth Meeting, Pa.). The enzymatic activity of caspases was determined by measuring the accumulation of the fluorogenic product 7-amino-4-methylcoumarin (AMC). All assays were prepared in 96-well format at a volume of 210 μL per well and consisted of 100 mM Na+ HEPES (pH 7.4), 10% sucrose, 100 mM NaCl, 0.1% CHAPS, 5 mM 2-mercaptoethanol, 2 mM EDTA, 10 μM Ac-YVAD-AMC (caspase 1); 20 mMNa^+ HEPES (pH 7.4), 10% sucrose, 100 mMNaCl, 0.1% CHAPS, 2 mM EDTA, 10 μM Ac-DEVD-AMC (caspase 3); 20 mM Na^+ HEPES (pH 7.4), 10% sucrose, 100 mM NaCl, 0.1% CHAPS, 2 mM EDTA, 10 μM Ac-VEID-AMC (caspase 6); 20 mM Na+ HEPES (pH 7.4), 100 mM NaCl, 10% sucrose, 0.1% CHAPS, 5 mM 2-mercaptoethanol, 2 mM EDTA, 10 μM Ac-DEVD-AMC (caspase 7); 20 mM Na+ HEPES (pH 7.4), 10% sucrose, 100 mM NaCl, 0.1% CHAPS, 2 mM EDTA, 10 μM Ac-IETD-AMC (caspase 8).
(§3) Recombinant caspases were first assayed to determine the optimal concentration for each experiment. Optimal concentrations were based in the linear range of the enzyme activation curves. Peptide inhibitors with known IC50 values were tested together with the compounds as a control for each caspase assay. […] Peptide and nonpeptide inhibitors were dissolved in DMSO, and a 2 serial dilution was performed prior to screening in order to obtain desired concentrations. 10 μL was added to each well containing 100 μL caspase solution and allowed to incubate on ice for 30 min. […] The final concentration of DMSO in all wells was 5% of the total volume. In caspase-1 and caspase-7 assays, 10 mM 2-mercaptoethanol was added to the substrate solution for full activation of the enzymes.
(§4) Compounds were tested in duplicate, and IC50 curves were calculated for all inhibitors assayed. Final IC50s were the average of three independent experiments.

[2] = target: T2, caspase-3 (Homo sapiens, UniProt P42574); experiment: Enzyme inhibition assay, caspase 3 (fluorogenic Ac-DEVD-AMC)
T2 construct: purchased Sigma-Aldrich (St. Louis, Mo.)
T2 sequence (P42574 29-175 limits assumed): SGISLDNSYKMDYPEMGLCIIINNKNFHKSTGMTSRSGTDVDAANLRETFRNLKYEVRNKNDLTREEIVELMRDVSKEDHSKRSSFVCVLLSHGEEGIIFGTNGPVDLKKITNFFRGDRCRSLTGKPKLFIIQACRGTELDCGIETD
T2 sequence (P42574 176-277 limits assumed): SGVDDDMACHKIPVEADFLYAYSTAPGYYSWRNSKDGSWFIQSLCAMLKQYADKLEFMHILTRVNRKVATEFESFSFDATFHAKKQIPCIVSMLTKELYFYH
Method: as §1, §2, §3, §4

[3] = target: T3, caspase 6 (Homo sapiens, UniProt P55212); experiment: Enzyme inhibition assay, caspase 6 (fluorogenic Ac-VEID-AMC)
T3 construct: purchased Sigma-Aldrich (St. Louis, Mo.)
T3 sequence (P55212 24-179 limits assumed): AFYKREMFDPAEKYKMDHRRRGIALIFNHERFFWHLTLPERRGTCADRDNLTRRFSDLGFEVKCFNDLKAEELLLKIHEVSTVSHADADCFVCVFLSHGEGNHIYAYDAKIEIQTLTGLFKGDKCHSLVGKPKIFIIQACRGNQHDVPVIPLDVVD
T3 sequence (P55212 194-293 limits assumed): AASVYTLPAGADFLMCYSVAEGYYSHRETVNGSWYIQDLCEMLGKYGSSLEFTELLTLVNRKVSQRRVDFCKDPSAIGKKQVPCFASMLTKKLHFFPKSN

[4] = target: T4, caspase 7 (Homo sapiens, UniProt P55210); experiment: Enzyme inhibition assay, caspase 7 (fluorogenic Ac-DEVD-AMC)
T4 construct: purchased Sigma-Aldrich (St. Louis, Mo.)
T4 sequence (P55210 24-198 limits assumed): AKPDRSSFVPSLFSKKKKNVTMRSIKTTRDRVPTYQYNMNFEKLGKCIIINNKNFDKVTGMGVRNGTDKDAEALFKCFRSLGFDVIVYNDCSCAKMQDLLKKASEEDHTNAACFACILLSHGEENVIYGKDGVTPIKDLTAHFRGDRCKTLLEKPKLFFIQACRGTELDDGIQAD
T4 sequence (P55210 207-303 limits assumed): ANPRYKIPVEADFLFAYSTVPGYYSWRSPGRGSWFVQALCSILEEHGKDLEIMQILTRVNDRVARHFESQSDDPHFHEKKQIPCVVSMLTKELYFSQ

[5] = target: T5, caspase 8 (Homo sapiens, UniProt Q14790); experiment: Enzyme inhibition assay, caspase 8 (fluorogenic Ac-IETD-AMC)
T5 construct: purchased Sigma-Aldrich (St. Louis, Mo.)

[6] = Table 6, read-out: IC50 (nM) caspase-1
[7] = Table 6, read-out: IC50 (nM) caspase-3
[8] = Table 6, read-out: IC50 (nM) caspase-6
[9] = Table 6, read-out: IC50 (nM) caspase-7
[10] = Table 6, read-out: IC50 (nM) caspase-8
[11] = Table 7, read-out: IC50 (nM) Casp-1
[12] = Table 7, read-out: IC50 (nM) Casp-8
[13] = Table 2, read-out: IC50 (nM) Caspase 1
[14] = Table 2, read-out: IC50 (nM) Caspase 3
[15] = Table 7, read-out: IC50 (nM) Casp-3
[16] = Table 2, read-out: IC50 (nM) Caspase 6
[17] = Table 7, read-out: IC50 (nM) Casp-6
[18] = Table 2, read-out: IC50 (nM) Caspase 7
[19] = Table 7, read-out: IC50 (nM) Casp-7
[20] = Table 2, read-out: IC50 (nM) Caspase 8

T5 sequence (Q14790 217-374 limits assumed): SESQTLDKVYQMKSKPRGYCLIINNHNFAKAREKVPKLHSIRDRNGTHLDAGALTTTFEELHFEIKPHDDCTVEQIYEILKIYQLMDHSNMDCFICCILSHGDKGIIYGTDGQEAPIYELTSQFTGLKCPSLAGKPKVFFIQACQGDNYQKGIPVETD
T5 sequence (Q14790 385-479 limits assumed): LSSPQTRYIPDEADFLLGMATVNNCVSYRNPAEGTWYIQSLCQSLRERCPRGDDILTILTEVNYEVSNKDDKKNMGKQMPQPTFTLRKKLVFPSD

| Compound | IC50 [1, 6] [nM] | IC50 [2, 7] [nM] | IC50 [3, 8] [nM] | IC50 [4, 9] [nM] | IC50 [5, 10] [nM] | IC50 [1, 11] [nM] | IC50 [5, 12] [nM] | IC50 [1, 13] [nM] | IC50 [2, 14] [nM] | IC50 [2, 15] [nM] | IC50 [3, 16] [nM] | IC50 [3, 17] [nM] | IC50 [4, 18] [nM] | IC50 [4, 19] [nM] | IC50 [5, 20] [nM] | further results |
| --- | --- | --- | --- | --- | --- | --- | --- | --- | --- | --- | --- | --- | --- | --- | --- | --- |
| CSc1ccc(CN2C(=O)C(=O)c3cc(S(=O)(=O)N4CCCC4COc4cccnc4)ccc32)cc1 (centres unmarked) [Compound 21d, 1-(4-Methylthiobenzyl)-5-(2-(pyridin-3-yl-oxymethyl)-pyrrolidine-1-sulfonyl)-1H-indole-2,3-dione] | > 50000 | 4.4 ± 1.4 | > 5000 | 23.3 ± 0.7 | > 50000 |  |  |  |  |  |  |  |  |  |  |  |
| O=C1C(=O)N(Cc2ccc(F)cc2)c2ccc(S(=O)(=O)N3CCCC3COc3cccnc3)cc21 (centres unmarked) [Compound 21e, 1-(4-Fluorobenzyl)-5-(2-(pyridin-3-yl-oxymethyl)-pyrrolidine-1-sulfonyl)-1H-indole-2,3-dione] | > 10000 | 8.4 ± 2 | > 5000 | 15.1 ± 0.1 | > 50000 |  |  |  |  |  |  |  |  |  |  |  |
| O=C1Nc2ccc(S(=O)(=O)N3CCCC3COc3ccncc3)cc2C1=O (centres unmarked) [Compound 23, 5-(2-(Pyridin-4-yl-oxymethyl)-pyrrolidine-1-sulfonyl)-1H-indole-2,3-dione] | > 5000 | 20.4 ± 1.7 | > 5000 | 142 ± 22.6 | > 50000 |  |  |  |  |  |  |  |  |  |  |  |
| O=C1C(=O)N(Cc2ccc(Br)cc2)c2ccc(S(=O)(=O)N3CCCC3COc3ccccc3)cc21 (centres unmarked) [Compound 25d, 1-(4-Bromo-benzyl)-5-(2-Phenoxymethyl-pyrrolidine-1-sulfonyl)-1H-indole-2,3-dione] |  |  |  |  |  | > 15000 | > 50000 |  |  |  |  |  |  |  |  | IC50 ([1]; Table 1, read-out: IC50 (nM) Caspase 1): > 15000 nM; IC50 ([2]; IC50 (nM) Casp-3, Table 7): 9.85 ± 0.9 nM; IC50 ([2]; IC50 (nM) Caspase 3, Table 1): 9.9 ± 0.9 nM; IC50 [3]: 8900 nM; IC50 ([4]; IC50 (nM) Casp-7, Table 7): 34.8 ± 1.4 nM; IC50 ([4]; IC50 (nM) Caspase 7, Table 1): 34.8 ± 1.4 nM; IC50 ([5]; Table 1, read-out: IC50 (nM) Caspase 8): > 50000 nM |
| N#CC(C#N)=C1C(=O)Nc2ccc(S(=O)(=O)N3CCCC3COc3ccccc3)cc21 (centres unmarked) [Compound 26, 2-[2-Oxo-5-(2-phenoxymethyl-pyrrolidine-1-sulfonyl)-1,2-dihydro-indol-3-yl-idene]-malononitrile] |  |  |  |  |  | 1830 ± 128 | > 50000 | 1830 | 272 ± 25 | 272 ± 24.7 | 407 ± 15 | 407 ± 15 | 1580 | 1580 ± 163 | > 50000 | IC50 ([2]; read-out: IC50 for caspase-3): 272 nM; IC50 ([4]; read-out: IC50 for caspase-7): 1580 nM |
| CN1C(=O)C(=C(C#N)C#N)c2cc(S(=O)(=O)N3CCCC3COc3ccccc3)ccc21 (centres unmarked) [Compound 27a, 2-[1-Methyl-2-oxo-5-(2-phenoxymethyl-pyrrolidine-1-sulfonyl)-1,2-dihydro-indol-3-yl-idene]-malononitrile] |  |  |  |  |  | 2820 ± 248 | > 50000 | 2820 | 119 ± 4 | 119 ± 4 | 698 ± 94 | 698 ± 94 | 785 ± 276 | 785 ± 276 | > 50000 |  |
| N#CC(C#N)=C1C(=O)N(Cc2ccccc2)c2ccc(S(=O)(=O)N3CCCC3COc3ccccc3)cc21 (centres unmarked) [Compound 27b, 2-[1-Benzyl-2-oxo-5-(2-phenoxymethyl-pyrrolidine-1-sulfonyl)-1,2-dihydroindol-3-yl-idene]-malononitrile] |  |  |  |  |  |  | > 50000 |  |  |  |  |  |  |  | > 50000 | IC50 [1]: 6220 nM; IC50 ([2]; IC50 (nM) Casp-3, Table 7): 27.8 ± 2.5 nM; IC50 ([2]; IC50 (nM) Caspase 3, Table 2): 27.8 ± 2.5 nM; IC50 ([2]; IC50 for caspase-3): 27.8 nM; IC50 [3]: 918 ± 151 nM; IC50 ([4]; IC50 (nM) Casp-7, Table 7): 51.7 ± 6.2 nM; IC50 ([4]; IC50 (nM) Caspase 7, Table 2): 51.7 ± 6.2 nM; IC50 ([4]; IC50 for caspase-7): 51.7 nM |
| N#CC(C#N)=C1C(=O)N(Cc2ccc(O)cc2)c2ccc(S(=O)(=O)N3CCC[C@H]3COc3ccccc3)cc21 [Compound 27c] |  |  |  |  |  | 2300 ± 250 | > 50000 | 2300 | 31.8 ± 6.2 | 31.8 ± 6.2 | 744 ± 48 | 744 ± 48 | 126 ± 19 | 126 ± 19.3 | > 50000 | IC50 ([2]; read-out: IC50 for caspase-3): 31.8 nM; IC50 ([4]; read-out: IC50 for caspase-7): 126 nM |
